Marks after values point to notes of the source that are not given here.
Tested on: HEL 92.1.7 cells
Experiment: Dual luciferase genetic reporter assay of promoter-directed luciferase expression in HEL cells
Assay type: cell-based, human
Conditions: for Decrease in luciferase expression relative to Prm1B (−7962): 5′ deletion or site-directed mutation of Prm1B; for Luciferase expression compared with another construct, in words: comparator as named in the words or parent fragment; for Decrease in luciferase expression relative to Prm1HΔ (−6320): site-directed mutation within Prm1HΔ; for Increase in luciferase activity relative to Prm1 (−8500): 5′ deletion or site-directed mutation of Prm1
Protocol: HEL and EA.hy 926 cells were co-transfected with the various pGL3Basic-recombinant plasmids (2 mg), encoding firefly luciferase, along with pRL-TK (200 ng), encoding renilla luciferase, using DMRIE-C® transfection reagent. HEK293, WI-38, and 1° hAoSMCs were co-transfected with the pGL3Basic-recombinant plasmids (2 mg), along with pRL-TK (200 ng), using Effectene transfection reagent. In all cases, cells co-transfected with pRL-TK (200 ng) in the presence of either the pGL3Control vector (firefly luciferase gene under the control of the SV40 promoter; 2 mg) or the promoter-less pGL3Basic empty vector (2 mg), which served as positive and negative controls, respectively. Firefly and renilla luciferase expression was assayed some 48 h post-transfection using the Dual-Luciferase Reporter Assay System™, as described (Coyle et al., 2005). Relative firefly to renilla luciferase activity (arbitrary units) was calculated as a ratio and was expressed in relative luciferase units (RLU). To investigate the effect of over-expression of exon 5 (+ or −) or KTS (+ or −) isoforms of WT1 on Prm1-directed gene expression, HEL cells were co-transfected with either pGL3b:Prm1 or pGL3b:Prm1D (1.5 μg) plus 200 ng of pRL-TK along with either pcDNA3:WT1 (+/+), pcDNA3:WT1 (+/−), pcDNA3:WT1 (−/+), pcDNA3:WT1 (−/−) (0.5 μg), or as a control, pcDNA3 (0.5 μg). Cells were harvested 48 h post-transfection and assayed for luciferase activity, as above, or subjected to western blot or RT-PCR analysis. The plasmids pcDNA3:WT1 (+/+), pcDNA3:WT1 (+/−), pcDNA3:WT1 (−/+) and pcDNA3:WT1 (−/−) were generously donated by Dr. Charles T. Roberts JR, Oregon National Primate Research Center, Oregon, USA and have been previously described (Tajinda et al., 1999). For PMA studies, approximately 32 h post-transfection, the medium was supplemented with PMA (100 nM), with PMA (100 nM) and PD98059 (10 μM) or, as a control, with vehicle [0.1% (v/v) DMSO]. After 16 h, cells were assayed for firefly and renilla luciferase using the Dual-Luciferase Reporter Assay System™ as previously described (Coyle et al., 2005). The plasmid pCMV5-NAB1, containing the entire coding sequence for NAB1, was generously donated by Dr. Gerald Thiel, University of Saarland Medical Center, Homburg, Germany, and has been described previously (Thiel et al., 2000). To investigate the effect of over-expression of NAB1 on the PMA-mediated induction of Prm1-directed gene expression, HEL cells were transiently co-transfected with pGL3b:Prm1 (2 μg) plus pRL-TK (200 ng) along with either pCMV5 (control) or pCMV:NAB1 (1 μg). Cells were harvested 48 h post-transfection and assayed for luciferase activity, as above.

Molecule: Prm1B^Ets(−7870)*: Prm1B with Ets element at −7870 mutated (SEQ ID NO:19) (DNA GACAGGTGAAGTGGGGA; expressed or natural sequence; listed as Homo sapiens)
- Decrease in luciferase expression relative to Prm1B (−7962) (HEL): 2.2 fold

Molecule: Prm1B^GATA(−7890)*: Prm1B with GATA element at −7890 mutated (SEQ ID NO:17) (DNA CTTGGTAGCTCAG; expressed or natural sequence; listed as Homo sapiens)
- Decrease in luciferase expression relative to Prm1B (−7962) (HEL): 1.8 fold

Molecule: Prm1BΔGata/Ets^Ets(−7805)*: Prm1BΔGata/Ets with Ets element at −7805 mutated (SEQ ID NO:21) (DNA GCCCCACATCACCCTCC; expressed or natural sequence; listed as Homo sapiens)
- Luciferase expression compared with another construct, in words (HEL): did not significantly affect the level of luciferase activity

Molecule: Prm1D^GC*^(−6717): Prm1D with GC element at −6717 mutated (SEQ ID NO:23) (DNA TCTGTCCTATCACCCCA; expressed or natural sequence; listed as Homo sapiens)
- Increase in luciferase expression relative to Prm1D (−6848) (HEL, 5′ deletion or site-directed mutation of Prm1D): 4.8 fold

Molecule: Prm1HΔ^NF-E2/AP1(−6080)*: Prm1HΔ with NF-E2/AP1 element at −6080 mutated (SEQ ID NO:33) (DNA CCAGACACACTCAGTTTCCCT; expressed or natural sequence; listed as Homo sapiens)
- Decrease in luciferase expression relative to Prm1HΔ (−6320) (HEL): reduced luciferase activity

Molecule: Prm1HΔ^Sp1/Egr1(−6007)*: Prm1HΔ with Sp1/Egr1 element at −6007 mutated (SEQ ID NO:37) (DNA CCCTCGCAATACCCTCGG; expressed or natural sequence; listed as Homo sapiens)
- Decrease in luciferase expression relative to Prm1HΔ (−6320) (HEL): 1.5 fold

Molecule: Prm1HΔ^Sp1/Egr1(−6022)*: Prm1HΔ with Sp1/Egr1 element at −6022 mutated (SEQ ID NO:35) (DNA TCTGCCCTAACCCAGCCCT; expressed or natural sequence; listed as Homo sapiens)
- Decrease in luciferase expression relative to Prm1HΔ (−6320) (HEL): 1.8 fold

Molecule: Prm1HΔ^Sp1/Egr1(−6278)*: Prm1HΔ with Sp1/Egr1 element at −6278 mutated (SEQ ID NO:27) (DNA CGCAGGGTGTATGGGGCTG; expressed or natural sequence; listed as Homo sapiens)
- Decrease in luciferase expression relative to Prm1HΔ (−6320) (HEL): reduced luciferase activity

Molecule: Prm1HΔ^Sp1/Egr1(−6294)*: Prm1HΔ with Sp1/Egr1 element at −6294 mutated (SEQ ID NO:25) (DNA CGAGGAACATGGCCA; expressed or natural sequence; listed as Homo sapiens)
- Decrease in luciferase expression relative to Prm1HΔ (−6320) (HEL): 1.3 fold

Molecule: Prm1I^GC*^(−6206): Prm1I with GC element at −6206 mutated (SEQ ID NO:29) (DNA CAGCGGCCTACACCCGT; expressed or natural sequence; listed as Homo sapiens)
- Increase in luciferase activity relative to Prm1I (−6258) (HEL, 5′ deletion or mutation of Prm1I): 1.3 fold

Molecule: Prm1^GC*^(−7831): Prm1 with GC element at −7831 mutated (SEQ ID NO:15) (DNA TCACTGTCCTCTCATCT; expressed or natural sequence; listed as Homo sapiens)
- Increase in luciferase activity relative to Prm1 (−8500) (HEL): 2.1 fold

Molecule: Prm1^GC*^(−8281): Prm1 with GC element at −8281 mutated (SEQ ID NO:11) (DNA GCCCGGTTCCCGCCGGA; expressed or natural sequence; listed as Homo sapiens)
- Increase in luciferase activity relative to Prm1 (−8500) (HEL): 1.9 fold

Molecule: Prm1^GC*^(−8345): Prm1 with GC element at −8345 mutated (SEQ ID NO:9) (DNA TGCCCCTGACCCCAC; expressed or natural sequence; listed as Homo sapiens)
- Increase in luciferase activity relative to Prm1 (−8500) (HEL): 2.0 fold

B1: Prm1D^WT-1(a, b, x)*: Prm1D-derived promoter with mutations at −6717, −6206 and −6800 (SEQ ID NO:124) (nucleic acid, listed as Homo sapiens)
DNA: GCTCCAAAGCCACCTCCGAGCCTCCTCAAGAGACCCTCCCATGCGATGCCACCACCCCAGCCCTCCCGGCTCACCTGCTCTGGGACCACCTTTCTCAGTCTGGCTGTGTCGTCTGGTGCACCCCCCATCCCTCTGTCCTATCACCCCACCCCTGGAAGGGGCCTCAAATATGTCCTGTATGTATTAAGCAGGGCATACTACTACTGTGTGCCGCGTTCCAGCGCACCCAGTGAATTTGGAGCCCTGGAGTCTGGGCGACCCCCGGGAGCCGATCCGCCTGGACCTGCCCCGCCCCCTCCAGGCCTTGGGTGCTGCCCAGATGGTGAATAATGCGGGCCTGGCGGCGGGAGCGCCGGGAAGAGGCCTGGCAGGGCGCTGGGCGGCTGGAGGGGCTGAGGCTCCCGAGGAAGCGCCCCTGCCACCCCTACGCGGGCCATTGCATCCCTGCCACCGGTGGCCTGGGGGTCCCAAGGGCGCCGCCTTCCCCAGAAGGCTGTAGGGTGTCCCGGCGTGCGGGGGGCACCCACTGACTCCAAGTCAGCCAGGCCCGGGCCCGAGGGGCGTGGCCAGCGCAGGGTGGGCGGGGCTGATGAGAGACAGCGGGAGACAGAGACTGGACGGAGAGAGCGAGCCGCGGGCTGCCAGCGGCCTACACCCGTCCCAGCTCGGCTTAGCCCCCGCGGACCCCTCCAGGCCGCGACCCCAGGGCGTCCTGTGCCGCCACGCCCTCCATCTGTGTGGGTCCTCTGCTGGGCCCGCCCCTGGTCACAGCCAGACTGACTCAGTTTCCCTGGGAGGTCCCGCTCGAGCCCGTCCTTCCCCTCCCTCTGCCCGCCCCCAGCCCTCGCCCCACCCTCGGCGCCCGCACATCTGCCTGCTCAGCTCCAGACGGCGCCCGGACCCCCGGGCGCGGGATCCAGCCAGGTGGGAGCCCCGCAGATGAGGTCTCTGAAG
- Statistical significance of luciferase expression vs Prm1D^WT-1(a, b)* (HEL): *** (p<0.001)
- Mean firefly relative to renilla luciferase activity (HEL cells, co-transfected with pRL-TK, 48 h post-transfection): 38.26 RLU
- Luciferase expression compared with another construct, in words (HEL): an even stronger promoter for driving luciferase expression relative to Prm1D^WT1(a)*^(b)*
- Statistical significance of luciferase expression vs Prm1D (HEL, ↑ = increase): *** (p<0.001)

Source: patent US20110269825A1, “Modified Thromboxane A2 Receptor Promoter Sequence” (priority 2008, published 2011)
